{"source": "paper PMC4455150", "about": "“A RP-UFLC Assay for Protein Tyrosine Phosphatases: Focus on Protein Tyrosine Phosphatase Non-Receptor Type 2 (PTPN2)” (Scientific Reports, 2015)", "type_in_all_cases": "biochemical", "key": {"PTPN2 [1]": {"biological_target": "T1, PTPN2 (Homo sapiens, UniProt P17706)", "T1 construct": "full length human PTPN2 (TC45 variant), 6xHis-tagged", "T1 sequence (P17706 1-381 limits assumed)": "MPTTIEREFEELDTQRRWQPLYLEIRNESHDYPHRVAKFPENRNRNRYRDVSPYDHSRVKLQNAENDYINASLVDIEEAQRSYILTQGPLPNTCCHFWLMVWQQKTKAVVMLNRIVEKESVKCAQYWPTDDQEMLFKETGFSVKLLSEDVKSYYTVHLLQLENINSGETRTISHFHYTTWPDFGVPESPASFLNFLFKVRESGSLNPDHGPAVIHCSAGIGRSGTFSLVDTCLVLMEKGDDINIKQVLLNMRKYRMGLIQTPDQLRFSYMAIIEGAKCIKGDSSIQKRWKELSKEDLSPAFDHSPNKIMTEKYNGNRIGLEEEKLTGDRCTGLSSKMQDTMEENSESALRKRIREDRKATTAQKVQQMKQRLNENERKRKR", "assay": "RP-UFLC phosphatase assay with FAM-pStat1 peptide; time- and concentration-dependent inactivation kinetics (ki […] ^-1 min^-1)"}, "PTPN2 [2]": {"biological_target": "T1, PTPN2", "assay": "RP-UFLC phosphatase assay with FAM-pStat1 peptide"}, "PTPN2 [3]": {"biological_target": "T1, PTPN2", "assay": "dephosphorylation of chromogenic substrate by purified enzyme"}}, "data": [{"smiles": "C=CS(=O)(=O)Oc1ccccc1", "note": "[PVSN, phenyl vinyl sulfonate]", "values": [{"measurement": "IC50", "setting": "PTPN2 [1]", "result": 180, "unit": "µM"}]}, {"smiles": "[O]=[V]([OH])([OH])[OH]", "note": "[orthovanadate]", "values": [{"measurement": "IC50", "setting": "PTPN2 [2]", "result": "~1000", "unit": "nM"}]}, {"smiles": "O=[N+]([O-])c1ccc(OP(=O)(O)O)cc1", "note": "[pNPP, p-nitrophenyl phosphate]", "values": [{"measurement": "dephosphorylation of chromogenic substrate by purified enzyme", "setting": "PTPN2 [3]", "result": "Purified PTPN2 was functional as demonstrated by the dephosphorylation of the non-proteinaceous and non-specific chromogenic substrate p-nitrophenyl phosphate (pNPP)"}]}]}
